Like-named read-outs stand apart in the source and are kept apart here. Where no end group is shown, it is not given here.
Tests used:
SCC-9 tumor cells = assay: Cell cycle phase and DNA fragmentation analysis (flow cytometry); assay type: cell-based; details: 24 h, 100 µM, compared to the control
Protocol: (§1) Figure 3 Analysis of cell cycle phases following a 24 h treatment with synthetic analogs of IsCT1 peptides. The indicated cells were treated at the IC50 values obtained for the IsCT-P and AC-AFPK-IsCT1 peptides and at a concentration of 100 µM for the other peptides. (a) Representative histograms of cell distribution across cell cycle phases; (b) bar graph showing the correlation of the effect on cell cycle and fragmented DNA, expressed as the mean ± SD of three independent SCC-9 tumor cell experiments; (c) bar graph showing the correlation of the effect on cell cycle and fragmented DNA, expressed as the mean ± SD of three independent experiments on SCC-25 tumor cells; (d) bar graph showing the correlation of the effect on cell cycle and fragmented DNA, expressed as the mean ± SD of three independent experiments of normal FN1 cells; (e) bar graph showing the correlation of the effect on cell cycle and fragmented DNA, expressed as the mean ± SD of three independent experiments of normal J774 cells. Statistical differences were obtained using ANOVA and Tukey–Kramer multiple comparison tests. * p < 0.05, ** p < 0.01, and *** p < 0.001 denote significance. ns = not significant.
(§2) Tumor (SSC-9 and SSC-25) and normal cells (FN1 and J-774) were subjected to treatment for 24 h at the peptides’ IC50 concentrations. Treated and control cells were trypsinized and centrifuged at 1200 rpm for 5 min. The resulting pellet was resuspended in 1 mL of cold buffer, followed by the addition of 3 mL of absolute ethanol. Samples were stored at −20 °C for 24 h. The samples were then centrifuged at 1500 rpm for 10 min and resuspended in 200 μL of FACS buffer containing 0.1% Triton X-100 (Sigma-Aldrich, St. Louis, MO, USA), 50 μg/mL propidium iodide (Sigma-Aldrich), and 1 µL of RNAse (200×). This mixture was kept at room temperature and protected from light for 30 min. The samples were then transferred to cytometry tubes and analyzed using a FACScanto flow cytometer (BD) with 10,000 events, and histograms were acquired and analyzed using ModFit LT 5.0 software.

SCC-25 tumor cells [1] = assay: as above; assay type: cell-based; details: 24 h, IsCT-P and AC-AFPK-IsCT1 at IC50, others 100 µM
Protocol: as §1, §2

[2] = Resistance to degradation in 25% fetal bovine serum; assay type: in vitro ADME; details: 25% fetal bovine serum in water, 37 °C, HPLC peak area vs t = 0 h, triplicate; for remaining at 0.5 h: read-out: peptide remaining intact after 30 min; for remaining at 6 h: read-out: peptide remaining intact after 6 h
Protocol: Figure 1 (a) Helical wheel projections of the IsCT1, AFPK-IsCT1, KKK-IsCT1, and IsCT-P peptides were generated using the Heliquest server (https://heliquest.ipmc.cnrs.fr/, accessed on 15 July 2024). In these projections, yellow, gray, and green circles represent hydrophobic amino acids, while blue and pink circles denote hydrophilic amino acids. (b) Resistance to degradation assays for all peptides were performed over 6 h in a solution containing 25% fetal bovine serum (FBS). These experiments were conducted in triplicate and aliquots were collected for analysis at 0, 0.5, 1, 2, 4, and 6 h of incubation. The aliquots were subsequently analyzed using high-performance liquid chromatography (HPLC) after each incubation period. The degradation kinetics of the peptides were determined by comparing the integrated peak area associated with the peptide at the start of the experiment (t = 0 h) with the integrated peak area at subsequent time points (t = 0.5, 1, 2, 4, 6 h). (c) The hemolytic activity of synthetic peptides analogous to IsCT1 was assessed on human erythrocytes within a concentration range of 0.13–128 μmol L^−1 in phosphate-buffered saline (PBS) (n = 3). A 1% solution of sodium dodecyl sulfate (SDS) in PBS served as a positive control, while PBS alone was used as a negative control. (d) A table summarizing the sequences, molecular weights, and physicochemical properties of the IsCT1, AFPK-IsCT1, and KKK-IsCT1 peptides. […]
Stability assays were conducted using GIBCO (Waltham, MA, USA) fetal bovine serum diluted to 25% in water, as described by Torres et al.. Briefly, peptide solutions were added to the serum solution and maintained at 37 °C. The experiments were carried out in triplicate and samples were taken at 0, 0.5, 1, 2, 4, and 6 h post incubation. The degradation kinetics were monitored using liquid chromatography and the percentage of remaining peptides was calculated by integrating the peak area of the peptide.

SCC-25 tumor cells [3] = assay: Mitochondrial membrane electrical potential (ΔΨm) by flow cytometry; assay type: cell-based; details: 24 h, IsCT-P and AC-AFPK-IsCT1 at IC50, others 100 µM, MitoRed, mean ± SD of three independent experiments
Protocol: Figure 4 Analysis of mitochondrial electrical potential (ΔΨm) using flow cytometry following a 24 h treatment with synthetic analogs of IsCT1 peptides. The indicated cells were treated at the IC50 values obtained for the IsCT-P and AC-AFPK-IsCT1 peptides and at a concentration of 100 µM for the other peptides. (a) Representative histograms of cell distribution according to ΔΨm; (b) bar graph showing ΔΨm expressed as the mean ± SD of three independent experiments of SCC-9 tumor cells; (c) bar graph showing ΔΨm expressed as the mean ± SD of three independent experiments of SCC-25 tumor cells; (d) bar graph showing ΔΨm expressed as the mean ± SD of three independent experiments of normal FN1 cells; (e) bar graph showing ΔΨm expressed as the mean ± SD of three independent experiments of normal J774 cells. Statistical differences were obtained using ANOVA and Tukey–Kramer multiple comparison tests. * p < 0.05, ** p < 0.01, and *** p < 0.001 denote significance. ns = not significant.
Tumor (SSC-9 and SSC-25) and normal cells (FN1 and J-774) were subjected to treatment for a period of 24 h at the peptides’ IC50 concentrations. After treatment, the cells were trypsinized, centrifuged at 1200 rpm for 5 min, the supernatant was discarded, and the cells were resuspended in complete medium containing MitoRed™ (Sigma-Aldrich, USA) (200 nM/L). Subsequently, the samples were incubated in an incubator at 37 °C with 5% CO2 for 30 min. The tubes were then centrifuged, the supernatant was discarded, and the pellet was resuspended in 200 μL of FACS buffer. Readings were performed using a FACScanto flow cytometer (BD) with 10,000 events, and histograms were acquired and analyzed using FCS Express software 2.0.

J774 cells = assay: MTT cell viability; assay type: cell-based; details: J774 normal macrophages, treatment 24 and 48 h (time of IC50 not given), absorbance 540 nm, N/IC50 = no IC50 for the tested concentrations, no toxicity
Protocol: (§3) Cell survival was assessed using an MTT assay. Tumor (SSC-9 and SSC-25) and normal cells (FN1 and J-774) were incubated in 96-well plates at a density of 10^5 cells/mL for 24 h. Subsequently, treatments were administered as described in Table 1 for 24 and 48 h. After the treatment period, the supernatant was aspirated and 100 μL of MTT at a concentration of 5 mg/mL (Calbiochem—Darmstadt, Germany) was added to the plate and incubated for 3 h at 37 °C with 5% CO2. Afterward, the content was removed and 200 μL of methanol was added to dissolve the formazan crystals. Absorbance was then measured at a wavelength of 540 nm using a microplate reader. The hemolysis assay was performed as previously reported.

SCC-9 cells = assay: MTT cell viability; assay type: cell-based; details: treatment 24 and 48 h (time of IC50 not given), absorbance 540 nm, N/IC50 = no IC50 for the tested concentrations, no toxicity
Protocol: as §3

SCC-25 cells = assay: MTT cell viability; assay type: cell-based; details: treatment 24 and 48 h (time of IC50 not given), absorbance 540 nm, N/IC50 = no IC50 for the tested concentrations, no toxicity
Protocol: as §3

FN1 cells = assay: MTT cell viability; assay type: cell-based; details: FN1 normal human fibroblasts, treatment 24 and 48 h (time of IC50 not given), absorbance 540 nm, N/IC50 = no IC50 for the tested concentrations, no toxicity
Protocol: as §3

## ALGKFWPKIKSLF-NH2 [AFPK-IsCT1]
SCC-9 tumor cells
  increase in fragmented DNA: 13.6%
SCC-25 tumor cells [1]
  fragmented DNA: No significant DNA fragmentation
[2]; 30 min
  remaining at 0.5 h: 50%
[2]
  remaining at 6 h: 8%
SCC-25 tumor cells [3]
  decrease in ΔΨm: 40.5 ± 0.4%
J774 cells
  IC50: N/IC50
SCC-9 cells
  IC50: N/IC50
SCC-25 cells
  IC50: N/IC50
FN1 cells
  IC50: N/IC50

## Ac-ILKKIWKGKKSLF-NH2 [AC-KKK-IsCT1]
SCC-25 tumor cells [1]
  fragmented DNA: 12.4%
[2]; 30 min
  metabolised at 0.5 h: 50%
[2]
  time to complete degradation: ≤ 4 h
J774 cells
  IC50: N/IC50
SCC-9 cells
  IC50: N/IC50
SCC-25 cells
  IC50: N/IC50
FN1 cells; read-out: IC50
  IC50: 100 µM

## H-ILKKIWKGKKSLF-NH2 [KKK-IsCT1]
SCC-25 tumor cells [1]
  fragmented DNA: 19%
[2]; 30 min
  remaining at 0.5 h: 50%
[2]
  remaining at 6 h: 8%
J774 cells
  IC50: N/IC50
SCC-9 cells
  IC50: N/IC50
SCC-25 cells
  IC50: N/IC50
FN1 cells
  IC50: N/IC50

From paper PMC11478212, “Antitumoral and Antiproliferative Potential of Synthetic Derivatives of Scorpion Peptide IsCT1 in an Oral Cavity Squamous Carcinoma Model” (Molecules, 2024)
